Counter-ions that a name gives are not always drawn.
Legend:
pigs = conditions: Trapp et al. 2002; cited from earlier work
finishing pigs [1] = assay: Growth performance and carcass characteristics of finishing pigs fed astaxanthin with or without Paylean; type: in vivo; conditions: for ADFI (Average Daily Feed Intake) / ADG (Average Daily Gain) / F/G (Pounds of feed to gain one pound of weight) / G/F (Reciprocal of F/G): 26 d
Experimental: Procedures used in the experiment were approved by the Kansas State University (KSU) Animal Care and Use Committee. The project was conducted at the KSU Swine Teaching and Research Farm. Pigs were housed in an environmentally-regulated finishing building with pens over a totally slatted floor that provided approximately 8 ft^2 per pig. Each pen was equipped with a dry, self-feeder and one nipple waterer, providing ad libitum access to feed and water. The facility was a mechanically-ventilated room with a pull-plug, manure storage pit.
A total of 144 finishing pigs from a single group (72 barrows and 72 gilts) were utilized for the experiments. Pigs were blocked by weight and gender, and allotted to one of 9 dietary treatments for an average period of 27 days pre-harvest. Each pen served as an experimental unit, with 2 pigs/pen and 8 replications to provide 16 pigs per treatment.
Experimental diets were provided in meal form and astaxanthin (0, 5, 7.5 and 10 ppm) was added to the control diet at the expense of corn starch to achieve the dietary treatments (Table 1). Paylean® was added to the diets indicated to contain 10 ppm.
Pigs were weighed on day 0, 7, 14, 21, and ˜27 to calculate average daily gain, average daily feed intake, and feed efficiency. Upon completion of the collection of growth performance data, all pigs were euthanized and processed for the collection of standard carcass measurements (dressing percentage, 10th rib backfat depth, loin muscle area, etc.).
Data were analyzed as a randomized complete block design using the PROC MIXED procedure of SAS with pen as the experimental unit. Linear and quadratic polynomial contrasts were used to determine the effect of increasing astaxanthin, with and without addition of Paylean®.
The source of natural astaxanthin used in this example was the yeast Phaffia rhodozyma which is commercially available under the trade name Aquasta® containing 10000 ppm astaxanthin, by weight.

finishing pigs [2] = conditions: Yang et al., cited from earlier work
[3] = 10 ppm Paylean, 0 ppm astaxanthin
[4] = 5 ppm astaxanthin in diet, without Paylean
[5] = 7.5 ppm astaxanthin in diet, without Paylean
[6] = 10 ppm astaxanthin in diet, without Paylean

Structure (SMILES): CC(CCc1ccc(O)cc1)NCC(O)c1ccc(O)cc1 (stereo not drawn) [Paylean®, ractopamine hydrochloride, reference compound]
- hot carcass weight, dressing percent and loin eye area (pigs): increase
- LEA (loin eye areas), average (finishing pigs [1]; 10 ppm Paylean alone): 8.29 square inches
- increase of LEA over control pigs (finishing pigs [1]; 10 ppm Paylean alone vs control diet without astaxanthin or Paylean): 1.03 square inches
- BF-10th rib (Back Fat) (finishing pigs [1]; [3]): 0.81 in.
- BF-avg. (Back Fat) (finishing pigs [1]; [3]): 1.06 in.
- Body weight, Final (finishing pigs [1]; [3]): 297.1 lb
- Carcass Yield (finishing pigs [1]; [3]): 72.0%
- HCW (Hot Carcass Weight) (finishing pigs [1]; [3]): 213.9 lb
- LEA-10th rib (Loin Eye Area) (finishing pigs [1]; [3]): 8.29 in^2
- PFFL (Percent Fat Free Lean, SFFL/HCW) (finishing pigs [1]; [3]): 53.8%
- SFFL (Standard Fat Free Lean) (finishing pigs [1]; [3]): 115.2 lb
- SFFL (standard fat free lean) (finishing pigs [1]; 10 ppm Paylean, control 108.4 pounds): 115.2 pounds
- ADFI (Average Daily Feed Intake) (finishing pigs [1]; [3]): 8.05 lb
- ADG (Average Daily Gain) (finishing pigs [1]; [3]): 2.83 lb
- F/G (Pounds of feed to gain one pound of weight) (finishing pigs [1]; [3]): 2.86
- G/F (Reciprocal of F/G) (finishing pigs [1]; [3]): 0.35

Structure (SMILES): CC1=C(/C=C/C(C)=C/C=C/C(C)=C/C=C/C=C(C)/C=C/C=C(C)/C=C/C2=C(C)C(=O)C(O)CC2(C)C)C(C)(C)CC(O)C1=O (stereo not drawn) [astaxanthin, 3,3′-dihydroxy-β,β-carotene-4,4′ dione]
- production performance (finishing pigs [2]; 0, 1.5 and 3.0 ppm astaxanthin in diet of finishing pigs): no significant effect
- dressing percentage, back fat thickness and loin muscle area (finishing pigs [2]; increasing dietary astaxanthin level (0, 1.5, 3.0 ppm)): linear effect
- BF-10th rib (Back Fat) (finishing pigs [1]; [4]): 0.84 in.
- BF-avg. (Back Fat) (finishing pigs [1]; [4]): 1.12 in.
- Body weight, Final (finishing pigs [1]; [4]): 287.6 lb
- Carcass Yield (finishing pigs [1]; [4]): 70.4%
- HCW (Hot Carcass Weight) (finishing pigs [1]; [4]): 202.6 lb
- LEA-10th rib (Loin Eye Area) (finishing pigs [1]; [4]): 7.55 in^2
- PFFL (Percent Fat Free Lean, SFFL/HCW) (finishing pigs [1]; [4]): 52.8%
- SFFL (Standard Fat Free Lean) (finishing pigs [1]; [4]): 107.1 lb
- LEA (loin eye areas), average (finishing pigs [1]; 7.5 ppm astaxanthin alone): 7.36 square inches
- increase of LEA over control pigs (finishing pigs [1]; 7.5 ppm astaxanthin alone vs diets without astaxanthin): 0.10 square inches
- BF-10th rib (Back Fat) (finishing pigs [1]; [5]): 0.81 in.
- BF-avg. (Back Fat) (finishing pigs [1]; [5]): 1.02 in.
- Body weight, Final (finishing pigs [1]; [5]): 287.4 lb
- Carcass Yield (finishing pigs [1]; [5]): 71.5%
- HCW (Hot Carcass Weight) (finishing pigs [1]; [5]): 203.4 lb
- LEA-10th rib (Loin Eye Area) (finishing pigs [1]; [5]): 7.36 in^2
- PFFL (Percent Fat Free Lean, SFFL/HCW) (finishing pigs [1]; [5]): 52.9%
- SFFL (Standard Fat Free Lean) (finishing pigs [1]; [5]): 107.6 lb
- BF-10th rib (Back Fat) (finishing pigs [1]; [6]): 0.77 in.
- BF-avg. (Back Fat) (finishing pigs [1]; [6]): 1.04 in.
- Body weight, Final (finishing pigs [1]; [6]): 286.2 lb
- Carcass Yield (finishing pigs [1]; [6]): 70.8%
- HCW (Hot Carcass Weight) (finishing pigs [1]; [6]): 202.5 lb
- LEA-10th rib (Loin Eye Area) (finishing pigs [1]; [6]): 7.53 in^2
- PFFL (Percent Fat Free Lean, SFFL/HCW) (finishing pigs [1]; [6]): 53.7%
- SFFL (Standard Fat Free Lean) (finishing pigs [1]; [6]): 108.6 lb
- ADFI (Average Daily Feed Intake) (finishing pigs [1]; [4]): 8.06 lb
- ADG (Average Daily Gain) (finishing pigs [1]; [4]): 2.34 lb
- F/G (Pounds of feed to gain one pound of weight) (finishing pigs [1]; [4]): 3.44
- G/F (Reciprocal of F/G) (finishing pigs [1]; [4]): 0.29
- ADFI (Average Daily Feed Intake) (finishing pigs [1]; [5]): 8.03 lb
- ADG (Average Daily Gain) (finishing pigs [1]; [5]): 2.45 lb
- F/G (Pounds of feed to gain one pound of weight) (finishing pigs [1]; [5]): 3.28
- G/F (Reciprocal of F/G) (finishing pigs [1]; [5]): 0.31
- ADFI (Average Daily Feed Intake) (finishing pigs [1]; [6]): 8.01 lb
- ADG (Average Daily Gain) (finishing pigs [1]; [6]): 2.41 lb
- F/G (Pounds of feed to gain one pound of weight) (finishing pigs [1]; [6]): 3.35
- G/F (Reciprocal of F/G) (finishing pigs [1]; [6]): 0.30
- SFFL versus pigs fed a diet without astaxanthin (finishing pigs [1]; astaxanthin alone): no statistical difference

— patent US20110130464A1, “Combination Agent for Improving Carcass Performance in Finishing Pigs” (IGENE BIOTECHNOLOGY, INC., priority 2008, published 2011)
